# Results as given in patent US20260284115A1, “THERAPEUTICS AND METHODS” (CAMBRIDGE ENTERPRISE LIMITED, priority 2022, published 2026).
# System: NALCN
# Test: Circulating ZsGreen+ cells (CZCs) in peripheral blood of non-tumour-bearing mice after NALCN blockade
# Assay type: in vivo
# Conditions: Prom1^CreERT2/Lacz; Rosa26^ZSG; Nalcn^+/+ mice without oncogenic alleles, n=10; FIG. 1a
# Protocol: Peripheral blood (500 μl-1 ml) was harvested from mice at autopsy into 10 μl of 0.5M EDTA, diluted in PBS and assessed by MACSQuant Analyzer (Miltenyi Biotech Inc.) for ZSgreen expression (525/50 nm [FITC] vs 614/50 nm [PI]). Cells for single cell RNA sequencing and tail vein injection were sorted using a BD FACSAria II Cell Sorter (BD Biosciences) excitation at 525/50 nm (FITC) vs 614/50 nm (PI). Non-tamoxifen induced mouse peripheral blood served as a negative control to set gate parameters. Twenty-five thousand ZSG^+ cells were sorted and injected into recipient NOD SCID gamma mice (Charles River) and aged. For serial dilution assessment of tCZC metastasis initiation, tCZCs were isolated from donor tumour-bearing via FACS based on ZSGreen expression and placed into culture medium. Culture medium: Advanced DMEM/F12 (31330038, ThermoFisher), 2 mM L-glutamine (25030024, ThermoFisher), B27 (12587010, ThermoFisher), N2 (A1370701, ThermoFisher), containing growth factors (50 ng/ml EGF [Peprotech], 100 ng/ml bFGF [100-18c, Peprotech] and 1% FBS (10500064, ThermoFisher). Cells were grown at 37° C. in 5% CO2. Recipient NOD SCID gamma mice (Charles River) were injected with either 10, 100, 1,000 or 10,000 tCZC cells via tail-vein injection and aged. Full autopsy and tissue harvesting were performed as described above.
compound,measurement,value
[Cl][Gd]([Cl])[Cl] [Gadolinium chloride],numbers of CZCs (circulating ZSG+ cells) in peripheral blood; stem cell-like cell shedding,significantly increased
